What was measured:
[1] = tested on: Omsk hemorrhagic fever virus; experiment: Antiviral activity against Omsk hemorrhagic fever virus Nikitina infected in PEK cells assessed as inhibition of viral plaque formation after 1 hr by gentian violet staining assay; type: functional, cell-based
[2] = tested on: Powassan virus; experiment: Antiviral activity against Powassan virus 24 infected in PEK cells assessed as inhibition of viral plaque formation after 1 hr by gentian violet staining assay; type: functional, cell-based; settings: for IC50: Powassan virus, 24, PEK
[3] = Chronic cytotoxicity against PEK cells after 7 days by neutral red staining assay; type: cell-based, Sus scrofa; settings: pig
[4] = tested on: Tick-borne encephalitis virus; experiment: Antiviral activity against Tick-borne encephalitis virus Absettarov infected in PEK cells assessed as inhibition of viral plaque formation after 1 hr by gentian violet staining assay; type: functional, cell-based
[5] = Acute cytotoxicity against PEK cells after 24 hrs by neutral red staining assay; type: cell-based, Sus scrofa; settings: pig

| Compound | IC50 [1] [µM] | inhibition [1] | inhibition [2] | IC50 [2] [µM] | CC50 at 168 h [3] [µM] | IC50 [4] [µM] | inhibition [4] | CC50 at 24 h [5] [µM] |
| --- | --- | --- | --- | --- | --- | --- | --- | --- |
| COc1ccccc1NC(=O)C1=C(C)NC(SCC(=O)Nc2ccc(Br)cc2)=C(C#N)C1c1ccc(C)o1 (racemic) | 3.7 | Dose-dependent effect | Dose-dependent effect | > 10 | 34 | > 10 | Dose-dependent effect | 248 |
| CCc1ccc(NC(=O)CSC2=C(C#N)C(c3ccco3)C(C(=O)Nc3ccc(CC)cc3)=C(C)N2)cc1 (racemic) | > 10 | Dose-dependent effect | Dose-dependent effect | > 10 | 33 | > 10 | Dose-dependent effect | 57 |
| CC1=C(C(=O)Nc2ccc(Cl)cc2)C(c2ccccc2)C(C#N)=C(SCC(=O)Nc2ccc(Oc3ccccc3)cc2)N1 (racemic) | > 10 | Dose-dependent effect | Dose-dependent effect | > 10 | 38 | 2.8 | Dose-dependent effect | > 250 |
| CC1=C(C(=O)Nc2ccc(Cl)cc2)C(c2ccccc2)C(C#N)=C(SCC(=O)Nc2ccc3ccccc3c2)N1 (racemic) | > 10 | Dose-dependent effect | Dose-dependent effect | > 10 | 20 | > 10 | Dose-dependent effect | 111 |
| CC1=C(C(=O)Nc2ccccc2C)C(c2ccco2)C(C#N)=C(SCC(=O)Nc2ccc3ccccc3c2)N1 (racemic) | 5.3 | Dose-dependent effect | Dose-dependent effect | > 10 | > 250 | > 10 | Dose-dependent effect | > 250 |
| CC1=C(C(=O)Nc2nc3ccccc3s2)C(c2ccco2)C(C#N)=C(SCC(=O)Nc2ccc(C(C)C)cc2)N1 (racemic) | 2.5 | Dose-dependent effect | Dose-dependent effect | > 10 | 29 | > 10 | Dose-dependent effect | > 250 |
| CC1=C(C(=O)Nc2ccccc2)C(c2ccco2)C(C#N)=C(SCC(=O)Nc2ccc(C)c(C)c2)N1 (racemic) | 3.2 | Dose-dependent effect | Dose-dependent effect | > 10 | 19 | > 10 | Dose-dependent effect | > 250 |
| CCOc1ccccc1N1CSC2=C(C#N)C(c3cccc(OCc4ccccc4)c3)CC(=O)N2C1 (racemic) | > 10 | Dose-dependent effect | Dose-dependent effect | 2.2 | 116 | 2.6 | Dose-dependent effect | > 250 |
| CC1=C(C(=O)Nc2ccccc2)C(c2cccs2)C(C#N)=C(SCC(=O)c2ccccc2)N1 (racemic) | > 10 | Dose-dependent effect | Dose-dependent effect | > 10 | 17 | > 10 | Dose-dependent effect | > 250 |
| CCc1ccc(NC(=O)CSC2=C(C#N)C(c3ccco3)C(C(=O)Nc3ccc(Cl)cc3)=C(C)N2)cc1 (racemic) | > 10 | Dose-dependent effect | Dose-dependent effect | > 10 | 27 | > 10 | Dose-dependent effect | 26 |
| COc1ccccc1NC(=O)C1=C(C)NC(SCC(=O)Nc2ccc(C)cc2)=C(C#N)C1c1cccs1 (racemic) | 5.5 | Dose-dependent effect | Dose-dependent effect | > 10 | 97 | > 10 | Dose-dependent effect | > 250 |
| CC1=C(C(=O)Nc2ccc(Cl)cc2)C(c2ccccc2)C(C#N)=C(SCC(=O)Nc2cccc(C)c2)N1 (racemic) | > 10 | Dose-dependent effect | Dose-dependent effect | > 10 | 41 | 2 | Dose-dependent effect | > 250 |
| COc1ccc(N2CSC3=C(C#N)C(c4ccc(OCc5ccccc5)c(OC)c4)CC(=O)N3C2)cc1 (racemic) | > 10 | Dose-dependent effect | Dose-dependent effect | > 10 | 53 | 0.09 | Dose-dependent effect | > 250 |
| CCCCc1ccc(N2CSC3=C(C#N)C(c4ccc(OCc5ccccc5)cc4)CC(=O)N3C2)cc1 (racemic) | > 10 | Dose-dependent effect | Dose-dependent effect | > 10 | 35 | 1.9 | Dose-dependent effect | > 250 |
| COc1ccc(N2CSC3=C(C#N)C(c4ccc(OCc5ccc(Cl)cc5)cc4)CC(=O)N3C2)c(OC)c1 (racemic) | > 10 | Dose-dependent effect | Dose-dependent effect | 1.3 | 39 | 0.07 | Dose-dependent effect | 109 |
| COc1ccc(NC(=O)CSC2=C(C#N)C(c3ccccc3F)C(C(=O)Nc3ccccc3C)=C(C)N2)cc1 (racemic) | 7.2 | Dose-dependent effect | Dose-dependent effect | > 10 | 89 | > 10 | Dose-dependent effect | > 250 |
| CCc1ccc(NC(=O)CSC2=C(C#N)C(c3ccc(O)c(OC)c3)C(C(=O)Nc3ccccc3)=C(C)N2)cc1 (racemic) | 1.8 | Dose-dependent effect | Dose-dependent effect | > 10 | 31 | > 10 | Dose-dependent effect | 114 |
| CC1=C(C(=O)Nc2nc3ccccc3s2)C(c2ccco2)C(C#N)=C(SCC(=O)Nc2nc3ccccc3s2)N1 (racemic) | 2.5 | Dose-dependent effect | Dose-dependent effect | > 10 | 52 | > 10 | Dose-dependent effect | > 250 |
| CCc1ccc(N2CSC3=C(C#N)C(c4cccc(OCc5ccccc5)c4)CC(=O)N3C2)cc1 (racemic) | > 11.9 | Dose-dependent effect | Dose-dependent effect | > 10 | 236 | > 10 | Dose-dependent effect | > 250 |
| CCc1ccc(NC(=O)CSC2=C(C#N)C(c3ccco3)C(C(=O)Nc3ccc(S(N)(=O)=O)cc3)=C(C)N2)cc1 (racemic) | 10 | Dose-dependent effect | Dose-dependent effect | > 10 | 153 | > 10 | Dose-dependent effect | > 250 |
| CCCCc1ccc(NC(=O)CSC2=C(C#N)C(c3ccco3)C(C(=O)Nc3ccc(OCC)cc3)=C(C)N2)cc1 (racemic) | > 10 | Dose-dependent effect | Dose-dependent effect | > 10 | 14 | 2.5 | Dose-dependent effect | 64 |
| CC1=C(C(=O)Nc2c(C)cccc2C)C(c2ccco2)C(C#N)=C(SCC(=O)Nc2nc3ccccc3s2)N1 (racemic) | 7.1 | Dose-dependent effect | Dose-dependent effect | > 10 | 7 | > 10 | Dose-dependent effect | > 250 |

Source: ChEMBL document CHEMBL2429750, “Inhibitors of tick-borne flavivirus reproduction from structure-based virtual screening” (ACS Med Chem Lett, 2013)
